# Data: ChEMBL document CHEMBL1142200, “Efficacy of delayed treatment with ST-246 given orally against systemic orthopoxvirus infections in mice” (Antimicrob Agents Chemother, 2007)
# Activity calls are given as the source filed them. The rule behind the calls is not given here.
# Assays:
# [1] = system: Mus musculus; experiment: Effect on mortality of BALB/c mouse inoculated with Cowpox virus at 100 mg/kg after 72 hrs of viral infection, po once daily for 14 days relative to control; format: functional
# [2] = system: Mus musculus; experiment: Effect on mortality of BALB/c mouse inoculated with Cowpox virus BR at 100 mg/kg after 4 hrs of viral infection, po once daily for 7 days relative to control; format: functional
# [3] = system: Mus musculus; experiment: Effect on mortality of BALB/c mouse inoculated with Cowpox virus BR at 100 mg/kg after 24 hrs of viral infection, po once daily for 7 days relative to control; format: functional
# [4] = system: Mus musculus; experiment: Effect on mortality of BALB/c mouse inoculated with Cowpox virus BR at 100 mg/kg after 24 hrs of viral infection, po once daily for 10 days relative to control; format: functional
# [5] = system: Mus musculus; experiment: Effect on mortality of BALB/c mouse inoculated with Cowpox virus BR at 100 mg/kg after 4 hrs of viral infection, po once daily for 14 days relative to control; format: functional
# [6] = system: Mus musculus; experiment: Effect on mortality of BALB/c mouse inoculated with Cowpox virus BR at 100 mg/kg after 24 hrs of viral infection, po once daily for 14 days relative to control; format: functional
# [7] = system: Mus musculus; experiment: Effect on mortality of BALB/c mouse inoculated with Vaccinia virus WR at 100 mg/kg after 24 hrs of viral infection, po once daily for 5 days relative to control; format: functional
# [8] = system: Mus musculus; experiment: Effect on mortality of BALB/c mouse inoculated with Vaccinia virus WR at 100 mg/kg after 24 hrs of viral infection, po once daily for 7 days relative to control; format: functional
# [9] = system: Mus musculus; experiment: Effect on mortality of BALB/c mouse inoculated with Vaccinia virus WR at 100 mg/kg after 4 hrs of viral infection, po once daily for 14 days relative to control; format: functional
# [10] = system: Mus musculus; experiment: Effect on mortality of BALB/c mouse inoculated with Vaccinia virus WR at 100 mg/kg after 24 hrs of viral infection, po once daily for 14 days relative to control; format: functional
# [11] = system: Cowpox virus; experiment: Reduction of Cowpox virus BR replication in BALB/c mouse lung at 50 mg/kg after 24 hrs of viral infection, po for 9 days; format: functional, organism-based; set-up: dose 50 mg/kg
# [12] = system: Mus musculus; experiment: Effect on mortality of A/NCr mouse inoculated with ectromelia virus at 100 mg/kg after 0 hrs of viral infection, po once daily for 10 days relative control; format: functional
# [13] = system: Mus musculus; experiment: Effect on mortality of A/NCr mouse inoculated with ectromelia virus at 100 mg/kg after 48 hrs of viral infection, po once daily for 10 days relative control; format: functional
# [14] = system: Mus musculus; experiment: Effect on mortality of A/NCr mouse inoculated with ectromelia virus at 100 mg/kg after 24 hrs of viral infection, po once daily for 10 days relative control; format: functional
# [15] = system: Mus musculus; experiment: Effect on mortality of BALB/c mouse inoculated with Cowpox virus BR at 50 mg/kg after 24 hrs of viral infection, po for 9 days; format: functional, organism-based; set-up: dose 50 mg/kg
# [16] = Cytotoxicity against HFF cells; format: cell-based; settings: human
# [17] = Selectivity index, ratio of CC50 for HFF cells to EC50 for Cowpox virus Brighton infected HFF cells; format: functional
# [18] = system: Mus musculus; experiment: Effect on mortality of BALB/c mouse inoculated with Cowpox virus BR at 100 mg/kg after 4 hrs of viral infection, po once daily for 5 days relative to control; format: functional
# [19] = system: Mus musculus; experiment: Effect on mortality of BALB/c mouse inoculated with Cowpox virus BR at 100 mg/kg after 24 hrs of viral infection, po once daily for 5 days relative to control; format: functional
# [20] = system: Mus musculus; experiment: Effect on mortality of BALB/c mouse inoculated with Cowpox virus at 10 mg/kg after 24 hrs of viral infection, po once daily for 14 days relative to control; format: functional
# [21] = system: Mus musculus; experiment: Effect on mortality of BALB/c mouse inoculated with Cowpox virus at 10 mg/kg after 4 hrs of viral infection, po once daily for 14 days relative to control; format: functional
# [22] = system: Mus musculus; experiment: Effect on mortality of BALB/c mouse inoculated with Cowpox virus at 30 mg/kg after 24 hrs of viral infection, po once daily for 14 days relative to control; format: functional
# [23] = system: Ectromelia virus; experiment: Reduction of Ectromelia virus replication in BALB/c mouse liver at 100 mg/kg, po once daily after 8 days; format: functional, organism-based; set-up: dose 100 mg/kg
# [24] = system: Ectromelia virus; experiment: Reduction of Ectromelia virus replication in BALB/c mouse lung at 100 mg/kg, po once daily after 4 days; format: functional, organism-based; set-up: dose 100 mg/kg
# [25] = system: Ectromelia virus; experiment: Reduction of Ectromelia virus replication in BALB/c mouse lung at 100 mg/kg, po once daily after 8 days; format: functional, organism-based; set-up: dose 100 mg/kg
# [26] = system: Ectromelia virus; experiment: Reduction of Ectromelia virus replication in BALB/c mouse spleen at 100 mg/kg, po once daily after 4 days; format: functional, organism-based; set-up: dose 100 mg/kg
# [27] = system: Ectromelia virus; experiment: Reduction of Ectromelia virus replication in BALB/c mouse esophagus at 100 mg/kg, po once daily after 8 days; format: functional, organism-based; set-up: dose 100 mg/kg
# [28] = system: Ectromelia virus; experiment: Reduction of Ectromelia virus replication in BALB/c mouse trachea at 100 mg/kg, po once daily after 4 days; format: functional, organism-based; set-up: dose 100 mg/kg
# [29] = system: Ectromelia virus; experiment: Reduction of Ectromelia virus replication in BALB/c mouse trachea at 100 mg/kg, po once daily after 6 days; format: functional, organism-based; set-up: dose 100 mg/kg
# [30] = system: Cowpox virus; experiment: Reduction of Cowpox virus BR replication in BALB/c mouse spleen at 50 mg/kg after 24 hrs of viral infection, po for 9 days; format: functional, organism-based; set-up: dose 50 mg/kg
# [31] = system: Vaccinia virus; experiment: Reduction of Vaccinia virus WR replication in BALB/c mouse liver at 50 mg/kg after 24 hrs of viral infection, po for 9 days; format: functional, organism-based; set-up: dose 50 mg/kg; settings: Orthopoxvirus vaccinia
# [32] = system: Vaccinia virus; experiment: Reduction of Vaccinia virus WR replication in BALB/c mouse spleen at 50 mg/kg after 24 hrs of viral infection, po for 9 days; format: functional, organism-based; set-up: dose 50 mg/kg; settings: Orthopoxvirus vaccinia
# [33] = system: Vaccinia virus; experiment: Reduction of Vaccinia virus WR replication in BALB/c mouse kidney at 50 mg/kg after 24 hrs of viral infection, po for 9 days; format: functional, organism-based; set-up: dose 50 mg/kg; settings: Orthopoxvirus vaccinia
# [34] = system: Mus musculus; experiment: Effect on mortality of BALB/c mouse inoculated with Cowpox virus at 30 mg/kg after 72 hrs of viral infection, po once daily for 14 days relative to control; format: functional
# [35] = system: Mus musculus; experiment: Effect on mortality of BALB/c mouse inoculated with Cowpox virus at 10 mg/kg after 72 hrs of viral infection, po once daily for 14 days relative to control; format: functional
# [36] = system: Mus musculus; experiment: Effect on mortality of A/NCr mouse inoculated with 41 PFU ectromelia virus at 100 mg/kg after 24 hrs of viral infection, po twice daily for 14 days; format: functional
# [37] = system: Mus musculus; experiment: Effect on mortality of A/NCr mouse inoculated with 410 PFU ectromelia virus at 100 mg/kg after 24 hrs of viral infection, po twice daily for 14 days; format: functional
# [38] = system: Ectromelia virus; experiment: Reduction of Ectromelia virus replication in BALB/c mouse liver at 100 mg/kg, po once daily after 14 days; format: functional, organism-based; set-up: dose 100 mg/kg
# [39] = system: Ectromelia virus; experiment: Reduction of Ectromelia virus replication in BALB/c mouse lung at 100 mg/kg, po once daily after 14 days; format: functional, organism-based; set-up: dose 100 mg/kg
# [40] = system: Ectromelia virus; experiment: Reduction of Ectromelia virus replication in BALB/c mouse spleen at 100 mg/kg, po once daily after 14 days; format: functional, organism-based; set-up: dose 100 mg/kg
# [41] = system: Ectromelia virus; experiment: Reduction of Ectromelia virus replication in BALB/c mouse esophagus at 100 mg/kg, po once daily after 14 days; format: functional, organism-based; set-up: dose 100 mg/kg
structure (smiles),measurement,setting,value
O=C(NN1C(=O)[C@@H]2[C@@H]3C=C[C@@H]([C@H]4C[C@@H]34)[C@@H]2C1=O)c1ccc(C(F)(F)F)cc1 [TECOVIRIMAT],Activity,[1],40%
same,Activity,[2],7%
same,Activity,[3],40%
same,Activity,[4],40%
same,Activity,[5],7%
same,Activity,[6],0%
same,Activity,[7],7%
same,Activity,[8],7%
same,Activity,[9],20%
same,Activity,[10],7%
same,Activity,[11],Active
same,Activity,[12],0%
same,Activity,[13],0%
same,Activity,[14],0%
same,Activity,[15],Active
same,CC50,[16],> 100 µM
same,Ratio CC50/EC50,[17],>208
same,Activity,[18],87%
same,Activity,[19],73%
same,Activity,[20],73%
same,Activity,[21],92%
same,Activity,[22],40%
same,Activity,[23],Active
same,Activity,[24],Active
same,Activity,[25],Active
same,Activity,[26],Active
same,Activity,[27],Active
same,Activity,[28],Active
same,Activity,[29],Active
same,Activity,[30],Active
same,Activity,[31],Active
same,Activity,[32],Active
same,Activity,[33],Active
same,Activity,[34],40%
same,Activity,[35],47%
same,Activity,[36],0%
same,Activity,[37],0%
same,Activity,[38],Active
same,Activity,[39],Active
same,Activity,[40],Active
same,Activity,[41],Active
